The results in this text go back to patent US20060111289A1, “Compositions and methods of using Alpha-fetoprotein growth inhibitory peptides” (Serometrix, LLC,, priority 2004, published 2006).

Entries after “also recorded” stand apart in the source; their conditions may differ.

Assay [1] deals with 6WI-1 mammary tumor cells. Kind of assay: Mouse ascites mammary tumor assay (6WI-1 isograft). Format: in vivo. The procedure: The growth suppression of the mammary ascites tumor by AFP peptides and its fragments P149a, P149b and P149c, and control peptides were determined in non-estrogen dependent assays which measured tumor cell growth and ascites accumulation of 6WI-1 mammary transplanted NYLAR/nya mice. […] Tumor cell inocula included doses of 0.3, 1.0, and 3.0×10^6 cells which produced host mortality at 12-14 days which was lethal in 100% of the animals. Following peptide dose titration studies, mice inoculated with 6WI-1 mammary cells were injected with a previously-determined optimal dose of 1.0 μg peptide per day or saline for 11 days. On day 12 following inoculation, the total accumulated ascites fluid volume and tumor cells in the peritoneal cavity of each animal were harvested and the cell count determined.
Inoculation of mice with all three cell doses led to an increase in body weight from 25 g (day 0) to approximately […] by day 12, due to the accumulation of tumor cells and ascites fluid in the intraperitoneal cavity. An average cell count in accumulated ascites fluid on day 12 was greater than 10^8 cells/ml with a total ascites volume approximating 20 mls. Tumor cell proliferation in this model has been reported to correlate with the volume of ascites fluid accumulated.
The 6WI-1 mouse mammary tumor studies involving peptide and non-peptide treatment were further compared by histopathological analysis performed on hematoxylin/eosin stained tissue sections.

For assay [2], the system named is LNCaP human prostate tumor cells. Briefly: Whole-cell voltage clamp of LNCaP cells. In kind it is cell-based. To be noted: 10 μM. The procedure:
LNCaP human prostate tumor cells were cultured on 5×5 mm plastic coverslips and were transferred to a microperfusion chamber on the stage of an inverted microscope. Whole-cell voltage clamp was accomplished with an Axopatch 200B (Axon Instr. Co., Union City, Calif.) using ruptured patches. Borosilicate glass capillaries (1.2 mm OD, 0.68 ID, type EN-I, Garner Glass Co., Claremont, Calif.) were used to fabricate patch pipettes (3-8 MΩ in the bath solution) with a Brown-Flaming horizontal micropipette puller (P-87, Sutter Instruments, San Rafael, Calif.). Patch-pipette tips were heat-polished prior to use. A micromanipulator (Narishige) fixed to the microscope positioned the pipettes. Electrode capacitance and access resistance were compensated prior to measurements. All experiments will be performed at room temperature (20-22° C.). The standard extracellular salt solution for ion currents contained (in mM): 150 NaCl, 6 KCl, 1.5 CaCl2, 1 MgCl2, 10 HEPES, 10 glucose, and pH adjusted to 7.4 with 1 N NaOH. […] Electrophysiological recordings were procured and analyzed using PClamp8 software (Axon Instr. Co, Union City, Calif.) and the WinASCD software (Guy Droogmans, Katholieke Universiteit; Leuven, B E). All results were recorded on computer hard drive or on digital audio tape (DAT). […]

For assay [3], the system named is 6WI-1 mammary tumor cells. Briefly: 6WI-1 mammary tumor in 15-day old mouse pups (6 day assay). In kind it is in vivo. To be noted: mouse, in vivo. An excerpt:
As an alternative model of the 6WI-I mammary tumor in adult mice, an inocula of 1×10^6 tumor cells injected into 15-day old mouse pups provided a 6 day rather than a 12 day assay and replicated the same tumor growth suppression by GIP.

The subject of another assay is MCF-7 and GI-101 cells. Briefly: ATP luminescence cytostatic assay (6 days). Format: cell-based, human. The following applies: peptide 10^−12 to 10^−8 M. An excerpt: FIG. 2 presents exemplary data for both in vivo and in vitro growth suppressive activities of the GIP-derived P149 and control peptides are depicted in GI-101 human ductal breast carcinoma and in MCF-7 human glandular breast carcinoma. • Panels A and A2: GI-101 and MCF-7 xenograft in nude mice administered P149 time-release pellets for 60 days and 30 days, respectively (N=5 mice/group). • Panels B and B2: GI-101 and MCF-7 in cell cultures treated with P149 and P187 at concentrations from 10-8 to 10-12 M for 6 days and assayed by ATP luminescence reagent employing a luciferin-luciferase system. The ATP assay, used to distinguish between cytostasis versus cytotoxicity, was used to confirm that P149 was cytostatic in its cell inhibitory activity at 6 days (see text for details).
In order to confirm whether P149 was indeed cytostatic, and not cytotoxic, an ATP-based cytostatic assay was performed which measures the decrease in cytosolic ATP during drug (i.e., for example, GIP peptide) treatment. This ATP luminescence assay has long been employed to distinguish between cytostatic versus cytotoxic chemotherapeutic sensitivity of drugs. […] After incubation of the cell cultures for 6 days, cytosolic ATP was extracted, stabilized, and quantitated from a standard curve produced from Berthold LB-96P luminometer readings using a luciferin-luciferase counting reagent.

[4] abbreviates: 1 × 10^6 tumor cells I.P., daily injections for eleven days, N = 5.

For “GINHLPSDAVGTAIEVMPCLRDGKLCIGAEHIEL (listed as Homo sapiens) [P327]”, the “Suppression of accumulation of cells and ascites fluid volume (anticancer activity)” value in assay [1] (1.0 μg peptide per day for 11 days) is recorded as “totally lacked anticancer activity”. In addition, in assay [1] (setting [4]), the “Metastatic histopathological findings: Abdominal Muscle” value is “Focal tumor infiltrate”, the “Metastatic histopathological findings: Gross Findings” value is listed as “Presence of tumor”, the “Metastatic histopathological findings: Kidney” value is recorded as “No infiltrate” and the “Metastatic histopathological findings: Liver” value was “No infiltrate”. In addition, in assay [1] (setting [4]), the “Metastatic histopathological findings: Pancreas” value was “Distinct presence of”; the “Metastatic histopathological findings: Retro-peritoneal mesentery and fat” value is recorded as “Extensive tumor infiltrate”; the “Metastatic histopathological findings: Spleen” value was “No infiltrate”; the “Metastatic histopathological findings: Uterus + Ovary” value is “Tumor encased organ”. The “Metastatic tumor infiltration, histopathology summary” value in assay [1] (mouse, in vivo) is on record as “high-to-moderate tumor infiltrates”. The Whole-cell membrane current entry in assay [2] is listed as “no effect on membrane current”.

Consider “LSENKLLACGEGAANIIIGHLCIRHEMTPVNPGV (listed as Homo sapiens) [P187]”, for which the “Growth inhibitory potency in the mouse pup model compared with P149” value in assay [3] was “slightly less growth inhibitory potency”. Further, in the assay with MCF-7 and GI-101 cells, the “Growth inhibition / decrease in cytosolic ATP in the ATP luminescence assay” value is recorded as “significantly different; also recorded: equally responsive as P149 at 10^−8 M”.
